From patent US20110189293A1, “THERAPEUTIC REGIMENS FOR THE TREATMENT OF IMMUNOINFLAMMATORY DISORDERS” (CombinatoRx, Incoporated, priority 2007, published 2011)

Legend:
[1] = cited from earlier work; for Equivalent dose, equal to 5 mg prednisolone: BNF guidelines
[2] = Equivalent corticosteroid dosing (BNF clinical dosing equivalence); details: BNF guidelines
Procedure: Equivalent potency in clinical dosing is well known.
The BNF guidelines are included in Table 2 below. More specifically, Table 2 provides doses of corticosteroids equivalent to 5 mg of prednisolone and equivalent to 1 mg of prednisolone when administered in a manner according to this invention.

| Compound | Equivalent dose, equal to 5 mg prednisolone [1] [mg] | Equivalent dose, equal to 1 mg prednisolone [2] [mg] | broadly similar dose from clinical dosing equivalence ([1]; nasal administration, BNF 37 March 1999) [µg] |
| --- | --- | --- | --- |
| CC(=O)OCC(=O)[C@@]12N=C(C)O[C@@H]1C[C@H]1[C@@H]3CCC4=CC(=O)C=C[C@]4(C)[C@H]3[C@@H](O)C[C@@]12C [Deflazacort] | 6 | 1.2 | – |
| C[C@]12CCC(=O)C=C1CC[C@@H]1[C@@H]2[C@@H](O)C[C@@]2(C)[C@H]1CC[C@]2(O)C(=O)CO [Hydrocortisone] | 20 | 4 | – |
| C[C@]12C=CC(=O)C=C1CC[C@H]1[C@@H]3C[C@@H](O)[C@](O)(C(=O)CO)[C@@]3(C)C[C@H](O)[C@@]12F [Triamcinolone] | 4 | 0.8 | 110 |
| CC(=O)OCC(=O)[C@@]1(O)CC[C@H]2[C@@H]3CCC4=CC(=O)CC[C@]4(C)[C@H]3C(=O)C[C@@]21C [cortisone acetate] | 25 | 5 | – |
| methyl prednisone | 4 | 0.8 | – |
